Assay results: US10189845B2, “4,6-substituted-pyrazolo[1,5-a]pyrazines as janus kinase inhibitors” (ARRAY BIOPHARMA INC., priority 2014, dated 2019)
Where two headings read alike, the source gives them in different places.

Assays:
Assay type in all cases: biochemical
[1] = target: Human Tyk2 kinase domain (Homo sapiens (Human), UniProt P29597); test: Tyk2 Inhibition Assay (Example A, Omnia kinase fluorescence peptide substrate assay); details: TYK2 Enzyme IC50 1 mM ATP, averaged IC50 ranges
Summary of the method: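 Omnia Sox-peptide kinetic fluorescence assay (ex 360/em 485 nm, read every 50 s for 45 min) with 1 nM human Tyk2 kinase domain (aa 886–1187, His tag cleaved, baculovirus-expressed), 1 mM ATP, 8 μM Omnia Y12 peptide, in 25 mM HEPES pH 7.4, 10 mM MgCl2, 0.01% Triton X-100, 1 mM DTT, 2% DMSO. IC50 from 4-parameter logistic fit of percent of control.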

[2] = target: JAK2 (Homo sapiens (Human), UniProt O60674); test: JAK2 Inhibition Assay (Example C, Omnia kinase fluorescence peptide substrate assay); details: JAK2 Enzyme IC50 1 mM ATP, averaged IC50 ranges
Summary of the method: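 4 nM JAK2 with 1 mM ATP and 10 μM Omnia Y7 peptide in 25 mM HEPES pH 7.4, 10 mM MgCl2, 0.01% Triton X-100, 1 mM DTT, 2% DMSO. Sox fluorescence (ex 360/em 485 nm) read every 50 s for 45 min; IC50 from 4-parameter fit of percent of control.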

[3] = target: JAK3 (Homo sapiens (Human), UniProt P52333); test: JAK3 Inhibition Assay (Example D, Omnia kinase fluorescence peptide substrate assay)
Summary of the method: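 Mixture held 2 nM JAK3, 1 mM ATP and 10 μM Omnia Y7 peptide in 25 mM HEPES pH 7.4, 10 mM MgCl2, 0.01% Triton X-100, 1 mM DTT, 2% DMSO final. Sox fluorescence (ex 360/em 485 nm) was read every 50 s for 45 min. IC50 came from a 4-parameter logistic fit of percent of control.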

[4] = target: JAK1 (Homo sapiens (Human), UniProt P23458); test: JAK1 Inhibition Assay (Example B, Omnia kinase fluorescence peptide substrate assay)
Summary of the method: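 Recombinant human JAK1 (12.5 nM) with 1 mM ATP and 8 μM Omnia Y12 Sox-peptide in 25 mM HEPES pH 7.4, 10 mM MgCl2, 0.01% Triton X-100, 1 mM DTT, 2% DMSO final. Phosphorylation read kinetically (ex 360/em 485 nm, 45 min); IC50 from 4-parameter fit of percent of control.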

[5] = JAK1 Enzyme IC50 1 mM ATP, 1 mM ATP, averaged IC50 ranges

JAK3, sequence (P52333 whole entry): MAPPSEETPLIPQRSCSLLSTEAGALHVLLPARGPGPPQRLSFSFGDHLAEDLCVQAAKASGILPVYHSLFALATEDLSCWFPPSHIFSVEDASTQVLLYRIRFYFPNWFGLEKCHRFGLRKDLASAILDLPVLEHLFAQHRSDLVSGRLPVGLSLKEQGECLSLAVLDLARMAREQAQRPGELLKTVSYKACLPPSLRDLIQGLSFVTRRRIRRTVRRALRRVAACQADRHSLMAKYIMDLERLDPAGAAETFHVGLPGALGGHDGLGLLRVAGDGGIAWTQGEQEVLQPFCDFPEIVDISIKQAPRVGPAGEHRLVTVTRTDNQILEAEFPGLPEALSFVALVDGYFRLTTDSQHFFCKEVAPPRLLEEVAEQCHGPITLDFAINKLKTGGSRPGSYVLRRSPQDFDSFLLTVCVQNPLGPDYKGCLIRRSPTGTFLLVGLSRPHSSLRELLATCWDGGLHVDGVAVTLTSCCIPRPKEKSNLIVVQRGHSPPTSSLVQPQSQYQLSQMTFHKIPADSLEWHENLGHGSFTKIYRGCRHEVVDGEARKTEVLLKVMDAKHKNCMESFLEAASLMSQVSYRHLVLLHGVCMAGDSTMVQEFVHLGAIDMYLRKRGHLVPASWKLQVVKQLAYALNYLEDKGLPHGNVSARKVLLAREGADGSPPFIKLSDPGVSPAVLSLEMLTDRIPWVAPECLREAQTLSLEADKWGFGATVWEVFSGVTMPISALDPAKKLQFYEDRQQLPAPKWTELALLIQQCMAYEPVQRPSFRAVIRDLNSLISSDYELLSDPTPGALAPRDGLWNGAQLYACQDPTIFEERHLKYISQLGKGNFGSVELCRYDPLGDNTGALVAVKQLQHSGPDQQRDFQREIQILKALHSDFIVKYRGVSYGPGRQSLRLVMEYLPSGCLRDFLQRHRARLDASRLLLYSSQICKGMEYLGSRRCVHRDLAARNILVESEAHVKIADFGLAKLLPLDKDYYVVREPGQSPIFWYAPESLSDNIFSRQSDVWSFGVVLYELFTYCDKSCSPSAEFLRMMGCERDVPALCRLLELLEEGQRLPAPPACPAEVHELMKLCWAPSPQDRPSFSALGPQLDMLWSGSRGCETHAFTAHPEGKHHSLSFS
JAK1, sequence (P23458 whole entry): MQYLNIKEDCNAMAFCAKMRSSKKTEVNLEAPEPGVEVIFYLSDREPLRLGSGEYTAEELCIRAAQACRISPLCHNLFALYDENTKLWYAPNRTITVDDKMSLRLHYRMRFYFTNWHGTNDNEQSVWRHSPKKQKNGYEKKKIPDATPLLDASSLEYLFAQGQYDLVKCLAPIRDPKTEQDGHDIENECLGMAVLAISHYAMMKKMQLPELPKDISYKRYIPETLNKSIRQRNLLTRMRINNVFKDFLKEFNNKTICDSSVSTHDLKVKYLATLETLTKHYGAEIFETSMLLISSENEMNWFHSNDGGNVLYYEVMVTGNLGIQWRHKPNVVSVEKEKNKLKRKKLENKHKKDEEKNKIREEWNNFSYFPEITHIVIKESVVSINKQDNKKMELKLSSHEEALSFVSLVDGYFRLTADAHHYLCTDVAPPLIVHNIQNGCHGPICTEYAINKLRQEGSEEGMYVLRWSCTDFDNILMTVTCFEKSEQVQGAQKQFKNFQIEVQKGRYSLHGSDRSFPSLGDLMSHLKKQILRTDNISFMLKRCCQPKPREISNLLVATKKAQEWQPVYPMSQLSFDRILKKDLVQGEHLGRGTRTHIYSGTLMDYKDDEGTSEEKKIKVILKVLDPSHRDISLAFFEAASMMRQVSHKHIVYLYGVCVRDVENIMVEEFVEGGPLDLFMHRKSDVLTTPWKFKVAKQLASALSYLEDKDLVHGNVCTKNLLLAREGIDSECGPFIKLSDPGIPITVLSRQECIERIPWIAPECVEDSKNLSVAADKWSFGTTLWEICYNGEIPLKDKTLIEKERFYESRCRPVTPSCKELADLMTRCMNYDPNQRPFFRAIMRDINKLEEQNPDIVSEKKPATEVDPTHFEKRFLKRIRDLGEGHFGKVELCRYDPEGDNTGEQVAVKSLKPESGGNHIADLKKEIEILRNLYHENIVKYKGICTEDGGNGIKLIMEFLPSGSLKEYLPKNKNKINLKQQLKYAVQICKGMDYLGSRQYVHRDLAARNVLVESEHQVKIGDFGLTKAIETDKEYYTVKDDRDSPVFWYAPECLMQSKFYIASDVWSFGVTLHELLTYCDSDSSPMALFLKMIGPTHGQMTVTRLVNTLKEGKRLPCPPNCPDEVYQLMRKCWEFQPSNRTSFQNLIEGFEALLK
Human Tyk2 kinase domain, sequence (P29597 886-1187): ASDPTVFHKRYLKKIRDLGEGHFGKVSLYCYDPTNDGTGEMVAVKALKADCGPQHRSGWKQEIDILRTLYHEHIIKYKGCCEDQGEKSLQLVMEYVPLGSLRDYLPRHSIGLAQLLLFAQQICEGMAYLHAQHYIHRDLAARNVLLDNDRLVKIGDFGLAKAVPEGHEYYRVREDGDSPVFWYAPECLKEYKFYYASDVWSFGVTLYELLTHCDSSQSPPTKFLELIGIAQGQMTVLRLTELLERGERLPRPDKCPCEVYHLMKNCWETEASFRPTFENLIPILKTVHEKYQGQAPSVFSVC
JAK2, sequence (O60674 whole entry): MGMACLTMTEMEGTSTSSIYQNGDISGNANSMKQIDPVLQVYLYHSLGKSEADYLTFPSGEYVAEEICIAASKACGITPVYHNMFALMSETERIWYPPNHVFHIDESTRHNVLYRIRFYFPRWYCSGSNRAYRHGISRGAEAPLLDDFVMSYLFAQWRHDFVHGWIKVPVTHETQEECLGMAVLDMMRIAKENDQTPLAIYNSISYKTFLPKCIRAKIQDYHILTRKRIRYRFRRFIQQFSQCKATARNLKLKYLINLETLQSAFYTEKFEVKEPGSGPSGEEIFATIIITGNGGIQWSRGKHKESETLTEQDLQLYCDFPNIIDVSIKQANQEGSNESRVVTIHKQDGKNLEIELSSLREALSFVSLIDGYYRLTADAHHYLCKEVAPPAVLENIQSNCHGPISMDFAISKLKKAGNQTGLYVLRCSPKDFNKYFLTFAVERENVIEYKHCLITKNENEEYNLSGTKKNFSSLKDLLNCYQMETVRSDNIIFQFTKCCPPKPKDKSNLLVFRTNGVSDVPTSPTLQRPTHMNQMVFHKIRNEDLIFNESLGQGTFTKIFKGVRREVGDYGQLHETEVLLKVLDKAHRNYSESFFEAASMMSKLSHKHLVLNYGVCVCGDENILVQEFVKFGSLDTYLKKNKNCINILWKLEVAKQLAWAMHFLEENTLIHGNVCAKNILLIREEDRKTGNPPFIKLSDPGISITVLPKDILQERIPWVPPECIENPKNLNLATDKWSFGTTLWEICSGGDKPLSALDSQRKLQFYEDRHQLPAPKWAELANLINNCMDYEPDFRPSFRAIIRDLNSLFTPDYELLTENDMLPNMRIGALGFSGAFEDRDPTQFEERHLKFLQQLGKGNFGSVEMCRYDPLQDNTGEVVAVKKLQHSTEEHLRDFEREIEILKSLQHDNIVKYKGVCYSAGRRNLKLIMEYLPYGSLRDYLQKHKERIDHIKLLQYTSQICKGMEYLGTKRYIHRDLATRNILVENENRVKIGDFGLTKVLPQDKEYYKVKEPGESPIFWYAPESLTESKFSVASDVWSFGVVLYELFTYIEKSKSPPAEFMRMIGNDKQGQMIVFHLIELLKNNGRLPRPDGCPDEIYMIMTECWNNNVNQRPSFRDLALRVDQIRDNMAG

Structure (SMILES) | IC50 [1] [µM] | IC50 [2] [µM] | IC50 [3] [µM] | IC50 [4] [µM] | IC50 [4, 5] [µM]
CCC(CC)n1cc(-c2nc(-c3cnn(CC4(O)CCN(C(C)=O)CC4)c3)cn3nccc23)cn1 [Example 185, 1-(4-hydroxy-4-((4-(4-(1-(pentan-3-yl)-1H-pyrazol-4-yl)pyrazolo[1,5-a]pyrazin-6-yl)-1H-pyrazol-1-yl)methyl)piperidin-1-yl)ethanone] | 0.1 to 1 | 0.1 to 1 | 1 to 10 | 0.1 to 1 | –
CCC[C@@H](C)n1cc(-c2nc(-c3cnn(C(CO)CO)c3)cn3nccc23)cn1 [Example 83, (R)-2-(4-(4-(1-(pentan-2-yl)-1H-pyrazol-4-yl)pyrazolo[1,5-a]pyrazin-6-yl)-1H-pyrazol-1-yl)propane-1,3-diol] | 0.01 to 0.1 | 0.01 to 0.1 | 1 to 10 | 1 to 10 | –
C[C@@H]1CCCC[C@H]1n1cc(-c2nc(-c3cnn(C[C@@H](O)CO)c3)cn3nccc23)cn1 (single isomer, unassigned) [Example 151] | 0.01 to 0.1 | 0.01 to 0.1 | 1 to 10 | – | 0.1 to 1
CCC(CC)n1cc(-c2nc(-c3cnn(C4CN(C(=O)C5CC5)C4)c3)cn3nccc23)cn1 [Example 43, cyclopropyl(3-(4-(4-(1-(pentan-3-yl)-1H-pyrazol-4-yl)pyrazolo[1,5-a]pyrazin-6-yl)-1H-pyrazol-1-yl)azetidin-l-yl)methanone] | 0.01 to 0.1 | 0.01 to 0.1 | 1 to 10 | 1 to 10 | –
CCC(CC)n1cc(-c2nc(-c3cnn(C4CN(C(=O)C(C)C)C4)c3)cn3nccc23)cn1 [Example 42, 2-methyl-1-(3-(4-(4-(1-(pentan-3-yl)-1H-pyrazol-4-yl)pyrazolo[1,5-a]pyrazin-6-yl)-1H-pyrazol-1-yl)azetidin-1-yl)propan-1-one] | 0.01 to 0.1 | 0.01 to 0.1 | 1 to 10 | 1 to 10 | –
CC[C@@H](CC1CC1)n1cc(-c2nc(-c3cnn(C[C@@H](O)CO)c3)cn3nccc23)cn1 [Example 205, (R)-3-(4-(4-(1-((S)-1-cyclopropylbutan-2-yl)-1H-pyrazol-4-yl)pyrazolo[1,5-a]pyrazin-6-yl)-1H-pyrazol-1-yl)propane-1,2-diol] | 0.01 to 0.1 | 0.01 to 0.1 | 1 to 10 | – | 0.1 to 1
CCC(CC)n1cc(-c2nc(-c3cnn([C@H]4CCC[C@@H]4O)c3)cn3nccc23)cn1 (single isomer, unassigned) [Example 154] | 0.01 to 0.1 | 0.01 to 0.1 | 1 to 10 | – | 0.1 to 1
CCC(C(=O)O)n1cc(-c2nc(-c3cnn(C)c3)cn3nccc23)cn1 (stereo not shown) [Example 44, 2-(4-(6-(1-methyl-1H-pyrazol-4-yl)pyrazolo[1,5-a]pyrazin-4-yl)-1H-pyrazol-1-yl)butanoic acid] | 0.01 to 0.1 | 1 to 10 | 1 to 10 | – | 1 to 10
CC[C@H](C1CC1)n1cc(-c2nc(-c3cnn(C[C@H](C)O)c3)cn3nccc23)cn1 [Example 218, (S)-1-(4-(4-(1-((R)-1-cyclopropylpropyl)-1H-pyrazol-4-yl)pyrazolo[1,5-a]pyrazin-6-yl)-1H-pyrazol-1-yl)propan-2-ol] | 0.01 to 0.1 | 0.01 to 0.1 | 1 to 10 | 0.1 to 1 | –
CC[C@@H](C1CCC1)n1cc(-c2nc(-c3cnn(C[C@@H](O)CO)c3)cn3nccc23)cn1 (single isomer, unassigned) [Example 197] | 0.01 to 0.1 | 0.01 to 0.1 | 1 to 10 | – | 0.1 to 1

Other lines, results leading:

IC50 [1] [µM] | IC50 [2] [µM] | IC50 [3] [µM] | IC50 [4] [µM] | IC50 [4, 5] [µM] | Structure (SMILES)
0.01 to 0.1 | 0.01 to 0.1 | 1 to 10 | – | 1 to 10 | CCC(CC)n1cc(-c2nc(-c3cnn(C[C@@H](O)CN(C)C)c3)cn3nccc23)cn1 [Example 101, (S)-1-(dimethylamino)-3-(4-(4-(1-(pentan-3-yl)-1H-pyrazol-4-yl)pyrazolo[1,5-a]pyrazin-6-yl)-1H-pyrazol-1-yl)propan-2-ol]
0.01 to 0.1 | 0.01 to 0.1 | 1 to 10 | 0.1 to 1 | – | CCC(CC)n1cc(-c2nc(-c3cnn(C[C@@H](O)C(C)(C)O)c3)cn3nccc23)cn1 [Example 57, (R)-3-methyl-1-(4-(4-(1-(pentan-3-yl)-1H-pyrazol-4-yl)pyrazolo[1,5-a]pyrazin-6-yl)-1H-pyrazol-1-yl)butane-2,3-diol]
0.01 to 0.1 | 0.01 to 0.1 | 1 to 10 | – | 0.1 to 1 | CCC(CC)n1cc(-c2nc(-c3cnn(CCN(C)S(C)(=O)=O)c3)cn3nccc23)cn1 [Example 9, N-methyl-N-(2-(4-(4-(1-(pentan-3-yl)-1H-pyrazol-4-yl)pyrazolo[1,5-a]pyrazin-6-yl)-1H-pyrazol-1-yl)ethyl)methanesulfonamide]
0.01 to 0.1 | 0.01 to 0.1 | 1 to 10 | – | 0.1 to 1 | CCC(CC)n1cc(-c2nc(-c3cnn(C[C@@H](O)[C@@H](C)O)c3)cn3nccc23)cn1 [Example 59, (2R,3R)-1-(4-(4-(1-(pentan-3-yl)-1H-pyrazol-4-yl)pyrazolo[1,5-a]pyrazin-6-yl)-1H-pyrazol-l-yl)butane-2,3-diol]
0.01 to 0.1 | 0.01 to 0.1 | 1 to 10 | 0.01 to 0.1 | – | CCC(CC)n1cc(-c2nc(-c3cnn(CC4(CO)COC4)c3)cn3nccc23)cn1 [Example 16, (3-((4-(4-(1-(pentan-3-yl)-1H-pyrazol-4-yl)pyrazolo[1,5-a]pyrazin-6-yl)-1H-pyrazol-1-yl)methyl)oxetan-3-yl)methanol]
0.01 to 0.1 | 0.01 to 0.1 | 1 to 10 | 0.1 to 1 | – | CCC(CC)n1cc(-c2nc(-c3cnn(C[C@@H](O)COC)c3)cn3nccc23)cn1 [Example 107, (R)-1-methoxy-3-(4-(4-(1-(pentan-3-yl)-1H-pyrazol-4-yl)pyrazolo[1,5-a]pyrazin-6-yl)-1H-pyrazol-1-yl)propan-2-ol]
0.01 to 0.1 | 0.01 to 0.1 | 1 to 10 | 1 to 10 | – | CCC(CC)n1cc(-c2nc(-c3cnn(CCN[C@H]4CCN(C)C4=O)c3)cn3nccc23)cn1 [Example 142, (S)-1-methyl-3-((2-(4-(4-(1-(pentan-3-yl)-1H-pyrazol-4-yl)pyrazolo[1,5-a]pyrazin-6-yl)-1H-pyrazol-1-yl)ethyl)amino)pyrrolidin-2-one]
0.01 to 0.1 | 0.01 to 0.1 | 1 to 10 | 1 to 10 | – | CCC(CC)n1cc(-c2nc(-c3cnn(CCCS(C)(=O)=O)c3)cn3nccc23)cn1 [Example 7, 6-(1-(3-(methylsulfonyl)propyl)-1H-pyrazol-4-yl)-4-(l-(pentan-3-yl)-1H-pyrazol-4-yl)pyrazolo[1,5-a]pyrazine]
0.01 to 0.1 | 0.01 to 0.1 | 1 to 10 | – | 1 to 10 | CCC(CC)n1cc(-c2nc(-c3cnn(CC4(O)CCOCC4)c3)cn3nccc23)cn1 [Example 116, 4-((4-(4-(1-(pentan-3-yl)-1H-pyrazol-4-yl)pyrazolo[1,5-a]pyrazin-6-yl)-1H-pyrazol-1-yl)methyl)tetrahydro-2H-pyran-4-ol]
0.01 to 0.1 | 0.01 to 0.1 | 1 to 10 | 0.1 to 1 | – | CCC(CC)n1cc(-c2nc(-c3cnn(C[C@@](C)(O)CO)c3)cn3nccc23)cn1 (single isomer, unassigned) [Example 202]
0.01 to 0.1 | 0.01 to 0.1 | 1 to 10 | – | 0.01 to 0.1 | CCC(CC)n1cc(-c2nc(-c3cnn(CC4(CO)CC4)c3)cn3nccc23)cn1 [Example 192, (1-((4-(4-(1-(pentan-3-yl)-1H-pyrazol-4-yl)pyrazolo[1,5-a]pyrazin-6-yl)-1H-pyrazol-1-yl)methyl)cyclopropyl)methanol]
0.01 to 0.1 | 0.01 to 0.1 | 1 to 10 | – | 0.1 to 1 | CCC(CC)n1cc(-c2nc(-c3cnn(C[C@@H](O)CO)c3)cn3nccc23)cn1 [Example 54, (R)-3-(4-(4-(1-(pentan-3-yl)-1H-pyrazol-4-yl)pyrazolo[1,5-a]pyrazin-6-yl)-1H-pyrazol-1-yl)propane-1,2-diol]
